In general, EC50 refers to the concentration that produces a half-maximal response. A word on the IC50: it is the concentration that inhibits the measured activity by half. By AC50 is commonly meant the concentration at which the activity in the assay is half-maximal.

The results in this text go back to ChEMBL document CHEMBL1201862, “PubChem BioAssay data set” (2004).

The nature of assay [1]: microbe, parasite or virus in culture. The class given is functional. The conditions noted are these: Mycobacterium tuberculosis.
Assay [2] can be described thus: C. albicans growth with fluconazole, confirmation, fluorescence, retest (AID 2467). The assay is classed as functional, cell-based.
Assay [3] is described as follows: NIH-3T3 fibroblast cytotoxicity, dose response, cytotoxicity control, cell-based, fluorescence, Alamar Blue, secondary assay (AID 2327).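 Note: NIH-3T3 mouse fibroblasts cultured with fluconazole at 8 µg/mL.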 The class given is functional. In general terms: Resazurin is reduced to fluorescent resorufin, in cell work by metabolically active cells.
In assay [4] the target is T1, Fatty acid synthase (Homo sapiens, UniProt P49327). Description: FAS thioesterase domain inhibitors, dose response, biochemical, kinetic fluorescence intensity (AID 624326).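 Note: rate of fluorescence rise from hydrolysis of a fluorogenic O-methyl fluorescein ester substrate.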 The assay is classed as functional.
T1 sequence (P49327 whole entry, the tested form may be a part): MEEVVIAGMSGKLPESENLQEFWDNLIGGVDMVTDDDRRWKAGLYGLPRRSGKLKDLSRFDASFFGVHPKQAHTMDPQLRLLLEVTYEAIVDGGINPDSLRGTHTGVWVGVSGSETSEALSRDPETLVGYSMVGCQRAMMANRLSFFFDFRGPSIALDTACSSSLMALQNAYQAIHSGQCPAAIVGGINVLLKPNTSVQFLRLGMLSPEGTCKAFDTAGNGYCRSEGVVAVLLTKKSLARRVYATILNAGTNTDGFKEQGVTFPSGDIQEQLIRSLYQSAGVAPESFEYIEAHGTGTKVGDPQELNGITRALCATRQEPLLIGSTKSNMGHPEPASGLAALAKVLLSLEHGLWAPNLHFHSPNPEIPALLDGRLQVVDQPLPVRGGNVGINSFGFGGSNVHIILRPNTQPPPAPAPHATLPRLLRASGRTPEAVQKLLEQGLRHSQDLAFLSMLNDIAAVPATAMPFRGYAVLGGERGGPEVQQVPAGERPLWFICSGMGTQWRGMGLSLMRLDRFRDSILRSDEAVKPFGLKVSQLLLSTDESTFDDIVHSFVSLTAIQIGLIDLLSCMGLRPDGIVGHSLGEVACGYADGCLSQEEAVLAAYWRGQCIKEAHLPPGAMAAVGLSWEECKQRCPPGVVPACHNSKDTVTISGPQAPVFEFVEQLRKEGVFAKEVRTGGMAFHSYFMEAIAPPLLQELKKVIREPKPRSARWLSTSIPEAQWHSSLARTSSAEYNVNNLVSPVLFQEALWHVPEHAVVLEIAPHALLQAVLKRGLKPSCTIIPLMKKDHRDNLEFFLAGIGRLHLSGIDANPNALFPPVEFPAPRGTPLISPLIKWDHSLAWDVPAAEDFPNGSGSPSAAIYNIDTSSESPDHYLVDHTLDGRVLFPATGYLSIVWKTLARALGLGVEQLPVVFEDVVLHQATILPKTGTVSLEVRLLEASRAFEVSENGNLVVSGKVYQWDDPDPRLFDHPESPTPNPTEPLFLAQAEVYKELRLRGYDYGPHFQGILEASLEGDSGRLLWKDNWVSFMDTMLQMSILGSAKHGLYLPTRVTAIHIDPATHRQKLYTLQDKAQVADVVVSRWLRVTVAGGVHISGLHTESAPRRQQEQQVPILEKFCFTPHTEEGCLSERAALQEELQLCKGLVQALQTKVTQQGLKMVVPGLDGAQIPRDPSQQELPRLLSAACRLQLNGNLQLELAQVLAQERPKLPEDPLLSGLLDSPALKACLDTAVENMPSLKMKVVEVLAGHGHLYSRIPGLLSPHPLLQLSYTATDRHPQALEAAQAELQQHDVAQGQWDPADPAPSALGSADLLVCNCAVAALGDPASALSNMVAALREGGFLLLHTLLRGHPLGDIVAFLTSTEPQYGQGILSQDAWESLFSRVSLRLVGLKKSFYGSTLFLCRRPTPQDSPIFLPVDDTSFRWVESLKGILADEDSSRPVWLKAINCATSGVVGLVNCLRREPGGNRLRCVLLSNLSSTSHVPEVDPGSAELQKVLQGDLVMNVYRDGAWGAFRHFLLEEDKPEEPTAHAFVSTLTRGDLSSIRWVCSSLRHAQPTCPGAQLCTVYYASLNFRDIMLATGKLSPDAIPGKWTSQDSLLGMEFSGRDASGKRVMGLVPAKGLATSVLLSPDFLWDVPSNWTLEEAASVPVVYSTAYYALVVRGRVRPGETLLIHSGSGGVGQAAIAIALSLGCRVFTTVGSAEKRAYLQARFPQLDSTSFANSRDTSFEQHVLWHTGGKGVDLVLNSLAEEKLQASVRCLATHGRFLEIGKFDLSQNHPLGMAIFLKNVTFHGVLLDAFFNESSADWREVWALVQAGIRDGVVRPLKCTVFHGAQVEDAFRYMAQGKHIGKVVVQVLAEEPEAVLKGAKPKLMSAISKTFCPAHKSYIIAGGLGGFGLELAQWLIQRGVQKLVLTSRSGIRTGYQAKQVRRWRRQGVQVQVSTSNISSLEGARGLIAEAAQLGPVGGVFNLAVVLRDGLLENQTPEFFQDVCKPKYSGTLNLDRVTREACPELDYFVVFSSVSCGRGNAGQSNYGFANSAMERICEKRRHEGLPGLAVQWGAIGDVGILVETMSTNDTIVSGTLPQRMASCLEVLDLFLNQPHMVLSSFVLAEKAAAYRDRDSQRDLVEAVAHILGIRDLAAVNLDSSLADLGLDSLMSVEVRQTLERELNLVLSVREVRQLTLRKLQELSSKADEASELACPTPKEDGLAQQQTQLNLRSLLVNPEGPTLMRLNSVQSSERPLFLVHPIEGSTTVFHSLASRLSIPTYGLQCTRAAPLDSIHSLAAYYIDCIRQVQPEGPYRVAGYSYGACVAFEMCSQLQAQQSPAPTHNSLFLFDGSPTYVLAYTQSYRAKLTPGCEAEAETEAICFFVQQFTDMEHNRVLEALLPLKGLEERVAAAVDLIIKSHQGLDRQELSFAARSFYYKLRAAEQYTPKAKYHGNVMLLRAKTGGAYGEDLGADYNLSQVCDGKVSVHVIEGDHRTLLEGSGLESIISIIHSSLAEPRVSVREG
Assay [5] deals with T1, Fatty acid synthase. In words: FAS thioesterase domain inhibitors, dose response, biochemical, endpoint fluorescence intensity, uHTS hits (AID 624327).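 Note: fluorescence from hydrolysis of an O-methyl fluorescein acyl ester substrate by the enzyme.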 The assay is classed as functional.
Another assay in a line: cells. The class given is functional.
Assay [6] in a line: cytotoxicity toward NIH3T3 fibroblasts, dose response, counter-screen, cell-based, ATP luminescence, mouse fibroblasts (AID 2010).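 Note: cells exposed to compound for about 90 hours before reading.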 The assay is classed as functional. (A counterscreen serves to expose hits that act by an unwanted route or on another target.)
A short description of assay [7]: inhibitors of intracellular T. cruzi replication, confirmation, NIH3T3 host cells, beta-gal luminescence (AID 2044).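 Note: intracellular parasites grown in NIH/3T3 mouse fibroblasts as host cells; luminescent beta-galactosidase reporter signal from transgenic T. cruzi replicating inside host cells; inhibitors lower the luminescence signal.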 The class given is functional, cell-based.
The target in assay [8] is T2, Heat shock factor protein 1 (Mus musculus, UniProt P38532).
T2 sequence (P38532 whole entry): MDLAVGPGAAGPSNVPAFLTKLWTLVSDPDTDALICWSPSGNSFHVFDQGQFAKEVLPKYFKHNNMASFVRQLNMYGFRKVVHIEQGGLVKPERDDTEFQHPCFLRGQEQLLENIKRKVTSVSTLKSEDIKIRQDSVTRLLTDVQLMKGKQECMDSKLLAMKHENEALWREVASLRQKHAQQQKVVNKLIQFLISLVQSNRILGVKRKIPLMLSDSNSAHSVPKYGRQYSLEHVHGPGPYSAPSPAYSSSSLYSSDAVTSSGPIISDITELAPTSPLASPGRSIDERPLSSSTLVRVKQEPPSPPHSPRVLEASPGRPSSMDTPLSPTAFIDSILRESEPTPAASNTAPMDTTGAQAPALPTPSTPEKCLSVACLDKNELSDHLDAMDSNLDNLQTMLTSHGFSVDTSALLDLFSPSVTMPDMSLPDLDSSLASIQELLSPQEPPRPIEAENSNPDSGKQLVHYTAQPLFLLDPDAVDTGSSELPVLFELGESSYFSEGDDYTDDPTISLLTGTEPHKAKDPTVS
Description: HSF1 potentiators in luciferase reporter cells, confirmation, cell-based, NIH3T3, luminescence, dose retest (AID 435004).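 Note: stress induced by proteasome inhibitor MG132 added 30 min after compound; luciferase reporter driven by HSF1 response element in NIH3T3 cells; actives raise luminescence as potentiators of the MG132 stress response.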 The class given is functional. Background: Reporter assays use an easily measured gene product as a stand-in for the process of interest.

For assay [9], the target named is T3, Calpain-2 catalytic subunit (Sus scrofa, UniProt P43367).
T3 sequence (P43367 whole entry): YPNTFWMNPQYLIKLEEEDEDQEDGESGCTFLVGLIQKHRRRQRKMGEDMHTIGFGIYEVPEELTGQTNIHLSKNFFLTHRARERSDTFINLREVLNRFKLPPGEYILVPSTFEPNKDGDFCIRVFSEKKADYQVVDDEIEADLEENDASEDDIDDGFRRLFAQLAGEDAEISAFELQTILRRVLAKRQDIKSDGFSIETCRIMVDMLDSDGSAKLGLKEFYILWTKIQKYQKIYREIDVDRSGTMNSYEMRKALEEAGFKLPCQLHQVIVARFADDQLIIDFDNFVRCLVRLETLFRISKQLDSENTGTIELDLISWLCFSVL
In words: pig calpain II inhibitor potency, dose response, biochemical, fluorogenic peptide substrate (AID 1420). The assay is classed as functional.

Assay [10] addresses Heat shock protein HSP 90-alpha (Homo sapiens, UniProt P07900). The assay is classed as functional, organism-based.
Another assay has as its target T4, Streptokinase A (Streptococcus pyogenes serotype M1, UniProt P10520).
T4 sequence (P10520 whole entry): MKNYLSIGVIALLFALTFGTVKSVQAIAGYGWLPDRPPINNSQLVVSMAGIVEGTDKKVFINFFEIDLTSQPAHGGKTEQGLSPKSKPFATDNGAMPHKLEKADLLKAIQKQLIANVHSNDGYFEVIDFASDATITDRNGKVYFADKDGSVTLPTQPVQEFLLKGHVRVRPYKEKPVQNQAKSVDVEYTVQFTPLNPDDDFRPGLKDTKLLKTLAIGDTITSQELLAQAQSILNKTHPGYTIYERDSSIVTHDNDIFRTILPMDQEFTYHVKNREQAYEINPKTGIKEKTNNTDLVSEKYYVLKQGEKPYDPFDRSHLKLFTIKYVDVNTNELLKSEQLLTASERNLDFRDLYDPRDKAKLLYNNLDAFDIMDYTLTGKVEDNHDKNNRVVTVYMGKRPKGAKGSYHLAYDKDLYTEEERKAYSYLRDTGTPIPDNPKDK
In words: S. pyogenes streptokinase expression inhibitors, potency, dose response, plasminogen activation absorbance, OD405 (AID 1914).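 Note: secreted streptokinase activity via plasminogen activation per viability signal from cell pellet.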 The assay is classed as functional, Streptococcus pyogenes M1 GAS.

The subject of another assay is Streptococcus. Description: Group A Streptococcus viability loss, dose response, counter-screen for streptokinase expression inhibitor project, luminescence, BacTiterGlo (AID 1915).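 Note: potency for reduction of bacterial viability or growth.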 The class given is functional, organism-based.
Assay [11] has as its system Streptococcus sp. 'group A'. Description: growth inhibition of control SK(-) GAS strain, dose response, counter-screen for streptokinase expression inhibitor project, luminescence, kanamycin, BacTiterGlo, confirmation (AID 1900). The class given is functional, organism-based.
Assay [12] in a line: control 3'UTR Renilla luciferase suppression, dose response, counter-screen for Shn3 inhibitor project, cell-based, Clone20-Shn3RL, cherry-picked (AID 624133). The class given is functional.
A short description of assay [13]: HepG2 cell cytotoxicity, dose response, cytotoxicity control for Shn3 inhibitor project, CellTiter-Glo, cherry-picked (AID 624134). The assay is classed as functional, cell-based.
Assay [14] in a line: Shn3 3'UTR reporter inhibitors, dose response, cell-based, Clone20 osteoblasts, firefly luciferase, cherry-picked (AID 624132).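 Note: firefly luciferase luminescence from reporter carrying the Shn3 3'UTR in osteoblasts.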 The assay is classed as functional.
The subject of a further assay is INS1. Description: beta cell apoptosis inhibitors, cytokine rescue, dose response, luminescence, retest (AID 449756).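 Note: cell death triggered by IL-1 beta plus TNF-alpha plus IFN-gamma mixture; protective hits raise ATP signal compared with cytokine alone wells.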 The note with it: Rattus norvegicus. The assay is classed as functional, cell-based.
Assay [15] can be described thus: inhibitors of firefly luciferase expression or activity, dose response, H4 neuroglioma cells, luminescence (AID 1990). The assay is classed as functional, cell-based.
The nature of assay [16]: Luminescence Cell-Based Dose Response HTS to Identify Inhibitors of 5'UTR Stem-Loop Driven Prion Protein mRNA Translation in H4 Neuroglioblastoma Cells. [Related pubchem assays: 1827 (Project Summary), 1813 (Primary HTS)]. The class given is functional.
Assay [17] can be described thus: inhibitors of SNCA 5'UTR-driven reporter translation, confirmation, H4 neuroglioma cells, luminescence (AID 1988). The class given is functional, cell-based.
The next assay concerns the target Cytochrome P450 3A4 (Homo sapiens, UniProt P08684).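 Note: CYP3A4 tested as one member of a cytochrome P450 panel screen.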

Active and inactive are the calls of the source.

Cytochrome P450 3A4, sequence (P08684 whole entry): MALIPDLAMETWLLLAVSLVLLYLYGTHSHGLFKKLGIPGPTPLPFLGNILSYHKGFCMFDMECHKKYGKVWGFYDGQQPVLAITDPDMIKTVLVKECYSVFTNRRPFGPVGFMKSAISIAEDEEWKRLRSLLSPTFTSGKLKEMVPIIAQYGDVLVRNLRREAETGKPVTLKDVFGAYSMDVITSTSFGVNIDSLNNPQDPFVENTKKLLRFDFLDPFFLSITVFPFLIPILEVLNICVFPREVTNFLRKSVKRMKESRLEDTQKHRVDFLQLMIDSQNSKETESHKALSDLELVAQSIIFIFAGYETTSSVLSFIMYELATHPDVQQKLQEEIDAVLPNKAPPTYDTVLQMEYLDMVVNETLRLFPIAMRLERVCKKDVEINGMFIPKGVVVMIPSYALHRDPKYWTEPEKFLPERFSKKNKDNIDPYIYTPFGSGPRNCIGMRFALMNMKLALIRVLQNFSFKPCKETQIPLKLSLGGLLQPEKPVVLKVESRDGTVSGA

`Cc1ccc(C2C3=C(CC(C)(C)CC3=O)N=C3c4ccccc4C(=O)C32)cc1` (stereo not given): in assay [1], the CC50 is > 40 µM (active). Further, the EC50 is 1.01 µM (active) in assay [2] and 24 µM (active) in assay [3].

Turning to `O=C(CC(=O)N/N=C\c1ccc([N+](=O)[O-])cc1)NCCc1ccccc1`, the IC50 on Fatty acid synthase [4] is 20.3 µM (inactive); at Fatty acid synthase [5], 23.6 µM (inactive).

As to `Cc1ccc(C(=O)CN(CCCC(N)=O)S(=O)(=O)c2ccc([N+](=O)[O-])cc2)cc1`, the IC50 was 2.83 µM (active) at Fatty acid synthase [4] and 3.83 µM (active) on Fatty acid synthase [5].

As to `Cc1nn(-c2ccccc2)nc1C(=O)c1c(C)nn(-c2ccccc2)c1O`, the CC50 in assay [1] was 35.8 µM (active). Besides, the IC50 in “cells” was 12.8 µM (active).

With `Cc1ccc(N2C(=O)C3CC(c4ccccc4)=C4C5C=CC(C6C(=O)N(c7ccc(C)cc7C)C(=O)C56)C4C3C2=O)c(C)c1` (stereo not given), the values for the IC50 at Fatty acid synthase [4] and at Fatty acid synthase [5] were 10.3 µM (active) and 17.4 µM (active), respectively. Also, the concentration for a half-maximal effect (EC50) in [6] was > 60 µM (not active); in assay [7], 2.49 µM (active); in [8], > 260 µM (inactive).

On to `COc1ccc(NC(=O)CN(c2ccc([N+](=O)[O-])cc2)S(=O)(=O)c2ccccc2)cc1`, for which the IC50 on Fatty acid synthase [4] is 3.48 µM (active); at Fatty acid synthase [5], 7.77 µM (active).

For `COc1ccc(C(=O)N2CCN(c3ncnc4c(-c5ccccc5)nsc34)CC2)cc1`, the IC50 in assay [9] is 4.3 µM (not active).

On to `CC(C)C(=O)N1CCN(c2ccccc2N)CC1`, for which the IC50 in assay [9] was 0.734 µM (not active).

Consider `CC(C)(C)SCCNC(=O)c1ccc(Cl)c([N+](=O)[O-])c1`, for which the results for the half-maximal inhibitory concentration (IC50) at Fatty acid synthase [4] and on Fatty acid synthase [5] were 5.65 µM (active) and 6.39 µM (active), respectively. In [10], the AC50 is 2.84 µM (active).

As for `Cc1ccc(Cn2c(C(CO)Nc3nc(-c4ccc(F)cc4)cs3)nc3ccccc32)cc1` (stereo not given), the CC50 in [1] was 28.5 µM (active). The EC50 was > 150 µM (not active) at Streptokinase A, 5.23 µM (active) with Streptococcus and 5.27 µM (active) in assay [11].

In the case of `COCCn1c(-c2ccc(OC(F)(F)C(F)C(F)(F)F)cc2)nc2c1c(=O)[nH]c(=O)n2CC(C)C` (stereo not given), in [1], the CC50 is > 40 µM (active).

On to `CC(C)=CCc1cc([C@@H]2COc3c(ccc4c3C=CC(C)(C)O4)C2)c(O)cc1O`, for which the AC50 is 4.11 µM (active) in assay [12], 58.3 µM (active) in assay [13], 7.54 µM (active) in assay [14] and 3.57 µM (active) in assay [10]. The concentration for a half-maximal effect (EC50) was > 150 µM (not active) at Streptokinase A, 5.23 µM (active) with Streptococcus and 1.8 µM (active) in assay [11].

Regarding `O=C(NNc1c(Cl)cc(Cl)cc1Cl)c1cccc([N+](=O)[O-])c1`, the IC50 was 6.77 µM (active) at Fatty acid synthase [4] and 10.7 µM (active) on Fatty acid synthase [5]. Moreover, in the assay on INS1, the AC50 was 3.93 µM (active).

Regarding `O=c1c2ccccc2nc(SCc2cn3ccsc3n2)n1-c1ccccc1F`, the IC50 in [9] was < 0.4 µM (not active).

Consider `Cc1cc(-c2cc(-c3ccc(Cl)cc3)nc(N)c2C#N)co1`, for which the EC50 in assay [15] is 20.9 µM (active); in assay [16], > 120 µM (not active); in [17], > 120 µM (not active). The AC50 on Cytochrome P450 3A4 is 17.8 µM (inconclusive); in assay [10], 6.87 µM (active).

For the compound `Cc1cccc(NC(S)=NCCSc2ccc(Cl)cc2)c1`, in [9], the IC50 is reported as 3.87 µM (not active). For the same compound, the half-maximal effective concentration (EC50) was > 120 µM (not active) in [15], 62.6 µM (active) in [16] and 84.8 µM (active) in [17].

`CC(=O)Oc1ccc(-c2cccc(C(=O)OCC(=O)N(C)c3ccccc3)c2)cc1`: the IC50 in [9] is 14.2 µM (not active). For the same compound, the EC50 in assay [8] is > 260 µM (inactive).

As for `CCn1c(CNc2ccc(Cl)cc2)nnc1SCc1ccc(C)cc1`, the AC50 in [10] is 8.07 µM (active).

In the case of `Cc1cc(/C=N/NC(=O)C(=O)NCc2ccccn2)c(C)n1-c1cccc(Br)c1`, in [9], the IC50 was < 0.4 µM (not active).
